The source made the active and inactive calls. The rule behind the calls is not given here.
Assays:
Experiment in all cases: off-target receptor, channel and CYP panel, profiling panel, selectivity assay for S1P3 agonist project, biochemical, Ricerca HitProfilingScreen, CYP450 (AID 540351)
[1] = target: 5-hydroxytryptamine receptor 2B (Homo sapiens) (UniProt P41595); details: Ricerca receptor/enzyme binding panel plus CYP450; Serotonin (5-Hydroxytryptamine) 5-HT2B; at 30 µM; active compounds read high
[2] = tested on: Adenosine A1; details: Ricerca receptor/enzyme binding panel plus CYP450, at 30 µM, active compounds read high
[3] = tested on: Adenosine A2A; details: Ricerca receptor/enzyme binding panel plus CYP450, at 30 µM, active compounds read high
[4] = tested on: Adrenergic alpha1A; details: Ricerca receptor/enzyme binding panel plus CYP450, at 30 µM, active compounds read high
[5] = tested on: Adrenergic alpha1B; details: Ricerca receptor/enzyme binding panel plus CYP450, at 30 µM, active compounds read high
[6] = tested on: Adrenergic beta1; details: Ricerca receptor/enzyme binding panel plus CYP450, at 30 µM, active compounds read high
[7] = target: Alpha-2A adrenergic receptor (Homo sapiens) (UniProt P08913); details: Ricerca receptor/enzyme binding panel plus CYP450; Adrenergic alpha2A; at 30 µM; active compounds read high
[8] = tested on: Alpha-2A adrenergic receptor (Homo sapiens) + Histamine H1 receptor (Homo sapiens) + Mu-type opioid receptor (Homo sapiens); details: Ricerca receptor/enzyme binding panel plus CYP450; at 30 µM; active compounds read high
[9] = target: Beta-2 adrenergic receptor (Homo sapiens) (UniProt P07550); details: Ricerca receptor/enzyme binding panel plus CYP450; Adrenergic beta2; at 30 µM; active compounds read high
[10] = tested on: CYP450, 2C19; details: Ricerca receptor/enzyme binding panel plus CYP450, at 30 µM, active compounds read high
[11] = tested on: Calcium Channel L-Type; details: Ricerca receptor/enzyme binding panel plus CYP450, Dihydropyridine, at 30 µM, active compounds read high
[12] = tested on: Cannabinoid CB1; details: Ricerca receptor/enzyme binding panel plus CYP450, at 30 µM, active compounds read high
[13] = target: Cytochrome P450 1A2 (Homo sapiens) (UniProt P05177); details: Ricerca receptor/enzyme binding panel plus CYP450; CYP450, 1A2; at 30 µM; active compounds read high
[14] = target: Cytochrome P450 2C9 (Homo sapiens) (UniProt P11712); details: Ricerca receptor/enzyme binding panel plus CYP450; CYP450, 2C9; at 30 µM; active compounds read high
[15] = target: Cytochrome P450 2D6 (Homo sapiens) (UniProt P10635); details: Ricerca receptor/enzyme binding panel plus CYP450; CYP450, 2D6; at 30 µM; active compounds read high
[16] = target: Cytochrome P450 3A4 (Homo sapiens) (UniProt P08684); details: Ricerca receptor/enzyme binding panel plus CYP450; CYP450, 3A4; at 30 µM; active compounds read high
[17] = target: D(1A) dopamine receptor (Homo sapiens) (UniProt P21728); details: Ricerca receptor/enzyme binding panel plus CYP450; Dopamine D1; at 30 µM; active compounds read high
[18] = tested on: Dopamine D2; details: Ricerca receptor/enzyme binding panel plus CYP450, at 30 µM, active compounds read high
[19] = tested on: GABAA; details: Central, at 30 µM, active compounds read high
[20] = tested on: Glutamate NMDA; details: Ricerca receptor/enzyme binding panel plus CYP450, Phencyclidine, at 30 µM, active compounds read high
[21] = tested on: Histamine H1; details: Ricerca receptor/enzyme binding panel plus CYP450, at 30 µM, active compounds read high
[22] = target: Muscarinic acetylcholine receptor M2 (Homo sapiens) (UniProt P08172); details: Ricerca receptor/enzyme binding panel plus CYP450, at 30 µM, active compounds read high
[23] = target: Muscarinic acetylcholine receptor M3 (Homo sapiens) (UniProt P20309); details: Ricerca receptor/enzyme binding panel plus CYP450, at 30 µM, active compounds read high
[24] = tested on: Nicotinic Acetylcholine; details: Ricerca receptor/enzyme binding panel plus CYP450, at 30 µM, active compounds read high
[25] = tested on: Opiate mu (OP3, MOP); details: Ricerca receptor/enzyme binding panel plus CYP450, at 30 µM, active compounds read high
[26] = tested on: Prostanoid EP4; details: Ricerca receptor/enzyme binding panel plus CYP450, at 30 µM, active compounds read high
[27] = tested on: Sigma 1; details: Ricerca receptor/enzyme binding panel plus CYP450, at 30 µM, active compounds read high
[28] = tested on: Sodium Channel, Site 2; details: Ricerca receptor/enzyme binding panel plus CYP450, at 30 µM, active compounds read high
[29] = tested on: Transporter, Norepinephrine (NET); details: Ricerca receptor/enzyme binding panel plus CYP450, at 30 µM, active compounds read high
[30] = target: Voltage-gated inwardly rectifying potassium channel KCNH2 (Homo sapiens) (UniProt Q12809); details: Ricerca receptor/enzyme binding panel plus CYP450; Potassium Channel hERG; at 30 µM; active compounds read high
Voltage-gated inwardly rectifying potassium channel KCNH2 (Homo sapiens), sequence (Q12809 whole entry, looked up): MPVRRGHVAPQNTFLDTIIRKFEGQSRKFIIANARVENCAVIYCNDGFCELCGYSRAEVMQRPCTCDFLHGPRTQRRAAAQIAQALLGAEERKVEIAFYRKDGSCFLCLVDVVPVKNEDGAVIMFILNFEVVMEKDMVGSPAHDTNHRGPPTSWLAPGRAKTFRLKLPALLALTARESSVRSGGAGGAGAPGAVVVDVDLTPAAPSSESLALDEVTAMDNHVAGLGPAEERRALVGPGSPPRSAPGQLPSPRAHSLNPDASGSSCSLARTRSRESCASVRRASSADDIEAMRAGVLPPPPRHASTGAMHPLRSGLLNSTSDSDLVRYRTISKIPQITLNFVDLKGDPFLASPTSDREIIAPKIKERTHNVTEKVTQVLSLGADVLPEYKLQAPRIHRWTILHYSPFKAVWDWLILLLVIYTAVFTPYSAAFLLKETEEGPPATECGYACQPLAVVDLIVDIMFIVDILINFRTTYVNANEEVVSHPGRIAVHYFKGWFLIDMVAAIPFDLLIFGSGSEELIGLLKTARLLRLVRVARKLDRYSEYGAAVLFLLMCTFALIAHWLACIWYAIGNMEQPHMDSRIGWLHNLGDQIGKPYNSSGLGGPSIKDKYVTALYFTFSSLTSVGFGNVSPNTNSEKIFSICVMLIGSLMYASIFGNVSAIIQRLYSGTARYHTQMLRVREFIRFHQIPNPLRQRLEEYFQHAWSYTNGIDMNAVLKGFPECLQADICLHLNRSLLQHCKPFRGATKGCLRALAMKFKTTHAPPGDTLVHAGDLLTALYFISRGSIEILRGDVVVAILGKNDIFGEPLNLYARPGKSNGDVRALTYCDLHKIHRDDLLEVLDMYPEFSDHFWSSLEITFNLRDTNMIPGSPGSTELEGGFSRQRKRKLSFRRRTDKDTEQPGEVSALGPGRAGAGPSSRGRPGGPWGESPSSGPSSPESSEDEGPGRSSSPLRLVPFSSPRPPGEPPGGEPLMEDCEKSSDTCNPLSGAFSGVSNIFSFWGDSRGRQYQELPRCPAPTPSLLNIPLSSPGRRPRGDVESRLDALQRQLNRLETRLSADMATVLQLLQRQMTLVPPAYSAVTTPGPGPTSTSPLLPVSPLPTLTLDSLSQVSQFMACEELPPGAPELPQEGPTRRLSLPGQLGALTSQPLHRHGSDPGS

Muscarinic acetylcholine receptor M3 (Homo sapiens), sequence (P20309 whole entry, looked up): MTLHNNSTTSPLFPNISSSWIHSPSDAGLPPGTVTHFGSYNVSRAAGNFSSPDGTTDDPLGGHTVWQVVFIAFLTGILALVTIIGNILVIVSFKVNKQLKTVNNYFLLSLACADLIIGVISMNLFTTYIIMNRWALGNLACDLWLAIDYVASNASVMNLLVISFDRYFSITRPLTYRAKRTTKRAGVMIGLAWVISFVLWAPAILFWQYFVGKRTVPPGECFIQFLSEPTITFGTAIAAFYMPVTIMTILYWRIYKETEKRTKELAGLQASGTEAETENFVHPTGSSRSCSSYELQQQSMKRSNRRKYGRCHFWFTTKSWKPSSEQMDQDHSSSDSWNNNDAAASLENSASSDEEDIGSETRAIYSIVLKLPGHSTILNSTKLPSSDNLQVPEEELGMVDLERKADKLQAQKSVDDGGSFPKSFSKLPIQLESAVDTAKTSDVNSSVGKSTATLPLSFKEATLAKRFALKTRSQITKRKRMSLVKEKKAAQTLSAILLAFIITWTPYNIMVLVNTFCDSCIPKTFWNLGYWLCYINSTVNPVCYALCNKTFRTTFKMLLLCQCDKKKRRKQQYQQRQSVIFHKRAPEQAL
Muscarinic acetylcholine receptor M2 (Homo sapiens), sequence (P08172 whole entry, looked up): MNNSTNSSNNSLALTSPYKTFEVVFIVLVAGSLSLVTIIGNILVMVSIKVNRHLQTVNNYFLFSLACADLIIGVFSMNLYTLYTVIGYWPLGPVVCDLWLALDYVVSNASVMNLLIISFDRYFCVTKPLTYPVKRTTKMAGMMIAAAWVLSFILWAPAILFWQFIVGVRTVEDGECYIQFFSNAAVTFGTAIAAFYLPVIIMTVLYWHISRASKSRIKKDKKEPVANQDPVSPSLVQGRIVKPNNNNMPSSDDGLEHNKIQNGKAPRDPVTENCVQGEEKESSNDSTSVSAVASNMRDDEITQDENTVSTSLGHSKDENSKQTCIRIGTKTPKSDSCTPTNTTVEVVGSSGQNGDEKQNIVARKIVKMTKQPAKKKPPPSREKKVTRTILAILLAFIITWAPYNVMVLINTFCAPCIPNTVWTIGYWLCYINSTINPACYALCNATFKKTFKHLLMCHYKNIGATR
Cytochrome P450 1A2 (Homo sapiens), sequence (P05177 whole entry, looked up): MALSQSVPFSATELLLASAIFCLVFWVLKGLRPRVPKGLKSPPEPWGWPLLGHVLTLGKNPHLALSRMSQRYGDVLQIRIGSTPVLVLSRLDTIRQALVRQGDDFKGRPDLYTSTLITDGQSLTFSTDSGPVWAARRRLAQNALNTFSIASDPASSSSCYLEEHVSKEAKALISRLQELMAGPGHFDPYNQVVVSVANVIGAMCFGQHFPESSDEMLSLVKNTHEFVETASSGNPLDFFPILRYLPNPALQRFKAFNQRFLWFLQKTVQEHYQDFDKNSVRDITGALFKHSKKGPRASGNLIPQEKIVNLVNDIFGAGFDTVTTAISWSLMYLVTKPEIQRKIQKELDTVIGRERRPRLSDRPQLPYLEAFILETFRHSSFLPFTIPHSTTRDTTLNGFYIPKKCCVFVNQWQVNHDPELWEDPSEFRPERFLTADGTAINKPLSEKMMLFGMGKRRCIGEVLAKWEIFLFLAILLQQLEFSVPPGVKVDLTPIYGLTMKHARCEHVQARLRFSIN
Cytochrome P450 2C9 (Homo sapiens), sequence (P11712 whole entry, looked up): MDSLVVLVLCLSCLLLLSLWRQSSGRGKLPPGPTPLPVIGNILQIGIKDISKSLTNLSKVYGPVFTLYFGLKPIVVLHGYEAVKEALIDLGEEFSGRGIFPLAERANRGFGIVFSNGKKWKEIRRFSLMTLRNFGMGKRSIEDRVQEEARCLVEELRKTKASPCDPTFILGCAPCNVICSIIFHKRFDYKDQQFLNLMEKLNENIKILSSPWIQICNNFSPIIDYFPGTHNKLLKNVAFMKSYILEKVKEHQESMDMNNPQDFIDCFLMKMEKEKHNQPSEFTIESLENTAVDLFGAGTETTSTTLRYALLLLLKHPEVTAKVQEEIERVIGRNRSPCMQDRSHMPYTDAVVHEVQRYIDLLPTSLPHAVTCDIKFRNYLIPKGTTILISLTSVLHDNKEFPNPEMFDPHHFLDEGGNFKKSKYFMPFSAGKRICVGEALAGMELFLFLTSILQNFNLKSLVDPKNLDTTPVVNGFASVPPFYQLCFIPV
Cytochrome P450 3A4 (Homo sapiens), sequence (P08684 whole entry, looked up): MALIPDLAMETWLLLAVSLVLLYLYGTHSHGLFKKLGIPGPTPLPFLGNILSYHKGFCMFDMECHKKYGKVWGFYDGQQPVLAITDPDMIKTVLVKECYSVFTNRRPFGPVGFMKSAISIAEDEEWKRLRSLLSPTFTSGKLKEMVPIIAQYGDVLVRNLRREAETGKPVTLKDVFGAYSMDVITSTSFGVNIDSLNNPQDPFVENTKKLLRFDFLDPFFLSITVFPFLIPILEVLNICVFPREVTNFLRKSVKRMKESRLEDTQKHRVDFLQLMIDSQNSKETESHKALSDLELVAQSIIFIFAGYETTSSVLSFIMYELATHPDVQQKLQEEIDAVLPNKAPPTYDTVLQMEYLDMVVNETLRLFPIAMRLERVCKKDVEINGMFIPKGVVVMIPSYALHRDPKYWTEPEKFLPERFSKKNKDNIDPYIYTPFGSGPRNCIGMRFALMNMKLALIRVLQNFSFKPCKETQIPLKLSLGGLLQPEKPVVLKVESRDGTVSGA
5-hydroxytryptamine receptor 2B (Homo sapiens), sequence (P41595 whole entry, looked up): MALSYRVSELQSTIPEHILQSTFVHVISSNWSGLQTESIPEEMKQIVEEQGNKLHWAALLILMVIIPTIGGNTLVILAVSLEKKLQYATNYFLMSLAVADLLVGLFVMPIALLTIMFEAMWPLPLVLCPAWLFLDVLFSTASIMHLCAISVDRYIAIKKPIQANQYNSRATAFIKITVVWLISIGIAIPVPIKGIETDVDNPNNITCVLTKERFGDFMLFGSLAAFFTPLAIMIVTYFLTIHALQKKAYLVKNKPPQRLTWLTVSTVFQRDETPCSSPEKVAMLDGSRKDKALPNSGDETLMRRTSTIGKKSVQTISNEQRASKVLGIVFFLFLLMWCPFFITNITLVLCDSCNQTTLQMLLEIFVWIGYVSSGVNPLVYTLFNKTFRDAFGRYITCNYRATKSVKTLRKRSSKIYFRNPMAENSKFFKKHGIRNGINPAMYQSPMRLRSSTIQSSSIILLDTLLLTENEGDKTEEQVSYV
Beta-2 adrenergic receptor (Homo sapiens), sequence (P07550 whole entry, looked up): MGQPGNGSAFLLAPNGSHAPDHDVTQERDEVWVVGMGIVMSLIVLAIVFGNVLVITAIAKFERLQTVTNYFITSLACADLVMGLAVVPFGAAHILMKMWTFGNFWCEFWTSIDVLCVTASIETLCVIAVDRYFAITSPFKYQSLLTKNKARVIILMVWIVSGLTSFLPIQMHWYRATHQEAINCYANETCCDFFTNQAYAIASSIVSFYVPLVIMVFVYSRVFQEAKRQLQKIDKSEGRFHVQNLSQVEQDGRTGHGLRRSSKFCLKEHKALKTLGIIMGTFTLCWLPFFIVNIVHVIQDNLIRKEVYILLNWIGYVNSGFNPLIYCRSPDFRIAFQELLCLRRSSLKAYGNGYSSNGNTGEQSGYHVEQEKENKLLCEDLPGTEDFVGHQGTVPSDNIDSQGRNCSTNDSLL

## O=C(c1cc(C2CC2)on1)N(C1CCCCC1)C1CCCCC1
[1]
  inhibition: 20% (inactive)
[2]
  inhibition: 38% (inactive)
[3]
  inhibition: 5% (inactive)
[4]
  inhibition: 21% (inactive)
[5]
  inhibition: 13% (inactive)
[6]
  inhibition: 45% (inactive)
[7]
  inhibition: 34% (inactive)
[8]
  inhibition: -2% (inactive)
[9]
  inhibition: -1% (inactive)
[10]
  inhibition: 68%
[11]
  inhibition: 28% (inactive)
[12]
  inhibition: 58%
[13]
  inhibition: 0% (inactive)
[14]
  inhibition: 24% (inactive)
[15]
  inhibition: -26% (inactive)
[16]
  inhibition: 74%
[17]
  inhibition: 21% (inactive)
[18]
  inhibition: -1% (inactive)
[19]; Ricerca receptor/enzyme binding panel plus CYP450, Flunitrazepam
  inhibition: 1% (inactive)
[19]; Ricerca receptor/enzyme binding panel plus CYP450, Muscimol
  inhibition: -2% (inactive)
[20]
  inhibition: 1% (inactive)
[21]
  inhibition: 51%
[22]
  inhibition: -1% (inactive)
[23]
  inhibition: 47% (inactive)
[24]
  inhibition: -50%
[25]
  inhibition: 38% (inactive)
[26]
  inhibition: 32% (inactive)
[27]
  inhibition: 16% (inactive)
[28]
  inhibition: 59%
[29]
  inhibition: 52%
[30]
  inhibition: 42% (inactive)

Reference: PubChem BioAssay AID540351 (The Scripps Research Institute Molecular Screening Center, 2011)
